Bounds are passed on as bounds.

Sequence of 6-phosphofructo-2-kinase/fructose-2,6-bisphosphatase 3 (Q16875 whole entry): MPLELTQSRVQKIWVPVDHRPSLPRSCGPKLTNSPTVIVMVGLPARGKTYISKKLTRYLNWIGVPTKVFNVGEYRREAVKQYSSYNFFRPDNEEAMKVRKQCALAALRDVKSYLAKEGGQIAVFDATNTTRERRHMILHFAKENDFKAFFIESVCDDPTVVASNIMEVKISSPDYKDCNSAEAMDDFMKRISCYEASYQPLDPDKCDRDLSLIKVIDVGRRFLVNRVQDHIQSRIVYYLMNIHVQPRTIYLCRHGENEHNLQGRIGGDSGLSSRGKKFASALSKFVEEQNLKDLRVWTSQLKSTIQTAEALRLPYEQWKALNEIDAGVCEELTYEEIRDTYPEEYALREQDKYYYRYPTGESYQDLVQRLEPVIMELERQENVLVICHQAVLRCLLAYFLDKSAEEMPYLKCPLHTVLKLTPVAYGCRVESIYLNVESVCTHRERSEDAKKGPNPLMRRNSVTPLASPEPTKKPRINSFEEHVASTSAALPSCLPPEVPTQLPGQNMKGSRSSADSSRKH

The test concerns the target 6-phosphofructo-2-kinase/fructose-2,6-bisphosphatase 3 (Homo sapiens, UniProt Q16875). Description: Inhibition of iPFK2 (unknown origin) assessed as reduction in enzyme-mediated fructose-6-phosphate phosphorylation by measuring ATP consumption incubated for 3 hrs by luciferase-luciferin-coupled chemiluminescence assay.
For `COc1cccc(CNc2cc(-c3ccc4occ(C)c4c3)nc(C)n2)c1`, the IC50 turned out to be 500 nM. Regarding `CCc1coc2ccc(-c3cc(N[C@@H](C)c4cccc(OC)c4)nc(C)n3)cc12`, the 50% inhibitory concentration (IC50) is greater than 1000 nM. On to `Cc1nc(NCCCN(C)c2ccccc2)cc(-c2ccc3ncsc3c2)n1`, for which the IC50 was greater than 1000 nM. Consider `Cc1nc(N[C@@H]2CCCc3ccccc32)cc(-c2cccc(C=O)c2)n1`, for which the 50% inhibitory concentration (IC50) was greater than 1000 nM. Under `CCc1cccc(-c2cc(N[C@@H]3CCCc4ccccc43)nc(C)n2)c1` stands greater than 1000 nM. As for `Cc1nc(N[C@@H]2CCCc3ccccc32)cc(-c2cccc(C(N)=O)c2)n1`, the IC50 was greater than 1000 nM. With `COc1cccc(-c2cc(NC(C)c3cccc(Br)c3)nc(C)n2)c1` (stereo unspecified), the half-maximal inhibitory concentration (IC50) is greater than 1000 nM.

Regarding `CCOc1cccc(-c2cc(N[C@@H]3CCCc4ccccc43)nc(C)n2)c1`, the concentration for half-maximal inhibition (IC50) was greater than 1000 nM. The value for `COc1ccc2c(c1)C(Nc1cc(-c3ccc4ncsc4c3)nc(C)n1)CCC2` (stereo unspecified) was greater than 1000 nM.

On to `Cc1nc(N[C@@H]2CCCc3ccccc32)cc(-c2ccc(OC(F)(F)F)cc2)n1`, for which the concentration for half-maximal inhibition (IC50) is greater than 1000 nM. For the compound `C#CCNS(=O)(=O)c1cccc(C(C)Nc2cc(-c3ccc4ncsc4c3)nc(C)n2)c1` (stereo unspecified), the 50% inhibitory concentration (IC50) was 500 nM. The value for `Cc1nc(NCCc2ccncc2)cc(-c2ccc3ncsc3c2)n1` was greater than 1000 nM; that for `Cc1nc(N[C@@H]2CCCc3ccccc32)cc(-c2cccnc2)n1` was greater than 1000 nM; that for `CCOC(=O)CCCOc1cccc(C(C)Nc2cc(-c3ccc4ncsc4c3)nc(C)n2)c1` (stereo unspecified) was greater than 1000 nM. Under `Cc1nc(NCc2cc(-c3ccccc3)no2)cc(-c2ccc3ncsc3c2)n1` stands greater than 1000 nM; under `Cc1ccc([C@H](C)Nc2cc(-c3ccc4occ(C)c4c3)nc(C)n2)cc1`, 500 nM. Under `Cc1nc(NC(C)c2cccc(C#N)c2)cc(-c2ccc3ncsc3c2)n1` (stereo unspecified) stands 500 nM; under `COc1cccc([C@H](C)Nc2cc(-c3ccnc(C)c3)nc(C)n2)c1`, greater than 1000 nM; under `CNC(=O)c1cc(-c2cc(N[C@@H]3CCCc4ccccc43)nc(C)n2)ccc1Cl`, greater than 1000 nM. Turning to `Cc1nc(N[C@@H]2CCCc3ccccc32)cc(-c2ccncc2)n1`, the IC50 was greater than 1000 nM. As for `Cc1nc(N[C@@H]2CCCc3ccccc32)cc(-c2ccc(N(C)C)cc2)n1`, the concentration for half-maximal inhibition (IC50) is greater than 1000 nM. Under `Cc1nc(N[C@H](C)c2cccc(-c3cnn(C)c3)c2)cc(-c2ccc3occ(C)c3c2)n1` stands 500 nM. Under `CCc1coc2ccc(-c3cc(NC(C)c4cccc(O)c4)nc(C)n3)cc12` (stereo unspecified) stands greater than 1000 nM; under `Cc1nc(NCC2CCCN(C(=O)OC(C)(C)C)C2)cc(-c2ccc3ncsc3c2)n1` (stereo unspecified), greater than 1000 nM; under `Cc1nc(NC(C)c2cccc(-c3noc(C)n3)c2)cc(-c2ccc3ncsc3c2)n1` (stereo unspecified), greater than 1000 nM. Under `Cc1nc(NC(C)c2cccc(O)c2)cc(-c2ccc3ncsc3c2)n1` (stereo unspecified) stands 500 nM; under `Cc1nc(NC[C@@H]2CCCN(C(=O)OC(C)(C)C)C2)cc(-c2ccc3ncsc3c2)n1`, greater than 1000 nM.

Regarding `COc1cccc([C@H](C)Nc2cc(N[C@@H]3CCCc4ccccc43)nc(C)n2)c1`, the IC50 was greater than 1000 nM. As for `Cc1nc(N[C@@H]2CCCc3ccccc32)cc(-c2cccc(CO)c2)n1`, the concentration for half-maximal inhibition (IC50) was greater than 1000 nM. The value for `Cc1nc(N[C@@H]2CCCc3ccccc32)cc(-c2ccc3c(c2)OCCN3C)n1` was greater than 1000 nM; that for `CC(=O)c1cccc(-c2cc(N[C@@H]3CCCc4ccccc43)nc(C)n2)c1` was greater than 1000 nM. The value for `COc1cccc(C(C)Nc2cc(-c3ccc4occ(C)c4c3)nc(C)n2)c1F` (stereo unspecified) was greater than 1000 nM; that for `COc1cccc([C@H](C)Nc2cc(-c3cccc(C)c3)nc(C)n2)c1` was 500 nM; that for `Cc1nc(N[C@@H]2CCCc3ccccc32)cc(-c2ccc3ccccc3c2)n1` was 500 nM.

Regarding `Cc1nc(N[C@@H]2CCCc3ccccc32)cc(-c2cccc(N)c2)n1`, the half-inhibitory concentration (IC50) was greater than 1000 nM. The value for `COc1cccc([C@H](C)Nc2cc(-c3ccncc3)nc(C)n2)c1` was greater than 1000 nM. As to `Cc1cc(COc2cccc(C(C)Nc3cc(-c4cc5ccccc5n4C)nc(C)n3)c2)n(C)n1` (stereo unspecified), the half-inhibitory concentration (IC50) was determined as 500 nM. The value for `Cc1nc(N[C@@H]2CCCc3ccccc32)cc(-c2ccccc2F)n1` was greater than 1000 nM; that for `Cc1cccc(-c2cc(N[C@@H]3CCCc4ccccc43)nc(C)n2)c1` was 500 nM. The value for `Cc1nc(N[C@@H]2CCCc3ccccc32)cc(-c2ccccc2Cl)n1` was greater than 1000 nM; that for `COc1ccc2c(c1)CCCC2Nc1cc(-c2ccc3ncsc3c2)nc(C)n1` (stereo unspecified) was 500 nM. The value for `COc1cccc([C@H](C)Nc2cc(-c3cccnc3)nc(C)n2)c1` was greater than 1000 nM. `COc1cccc2c1CCCC2Nc1cc(-c2ccc3ncsc3c2)nc(C)n1` (stereo unspecified): the IC50 is greater than 1000 nM. For `COC(=O)c1cc(-c2cc(N[C@@H]3CCCc4ccccc43)nc(C)n2)ccc1Cl`, the 50% inhibitory concentration (IC50) stood at 500 nM. Take `COc1cc(-c2cc(NC(C)c3cccc(OCC(N)=O)c3)nc(C)n2)ccc1C` (stereo unspecified): the IC50 turned out to be 500 nM. Under `Cc1nc(NC(C)c2cccc(OCCCC(=O)O)c2)cc(-c2ccc3ncsc3c2)n1` (stereo unspecified) stands 500 nM; under `Cc1nc(NC(C)c2cccc(OCC(=O)O)c2)cc(-c2ccc3ccn(C)c3c2)n1` (stereo unspecified), 500 nM. Under `CCOC(=O)CNC(=O)COc1cccc(C(C)Nc2cc(-c3ccc4ccn(C)c4c3)nc(C)n2)c1` (stereo unspecified) stands 500 nM; under `CNC(=O)CNc1cc(-c2cc(N[C@@H]3CCCc4ccccc43)nc(C)n2)ccc1Cl`, greater than 1000 nM. The value for `Cc1nc(N[C@@H]2CCCc3ccccc32)cc(-c2cn[nH]c2)n1` was greater than 1000 nM. In the case of `COc1cccc([C@H](C)Nc2cc(-c3ccc(C)c(OC)c3)nc(C)n2)c1`, the IC50 came to 500 nM. Under `Cc1nc(NC(C)c2cccc(OCC(=O)N3CCOCC3)c2)cc(-c2ccc3ncsc3c2)n1` (stereo unspecified) stands 500 nM; under `Cc1nc(N[C@@H]2CCCc3ccccc32)cc(-c2cccc(O)c2)n1`, 500 nM. In the case of `COc1cc(-c2cc(NC(C)c3cccc(OCc4ccn(C)n4)c3)nc(C)n2)ccc1C` (stereo unspecified), the IC50 was determined as 500 nM. On to `Cc1nc(NC(C)c2cccc(OCc3ccn[nH]3)c2)cc(-c2ccc3ncsc3c2)n1` (stereo unspecified), for which the 50% inhibitory concentration (IC50) was determined as 500 nM. Regarding `Cc1nc(N[C@@H]2CCCc3ccccc32)cc(-c2ccc(N)cc2)n1`, the IC50 was greater than 1000 nM. Under `Cc1ccc2c(c1)C(Nc1cc(-c3ccc4ncsc4c3)nc(C)n1)CCO2` (stereo unspecified) stands greater than 1000 nM. The value for `Cc1nc(N[C@H]2CCOc3ccccc32)cc(-c2ccc3ncsc3c2)n1` was greater than 1000 nM. For the compound `Cc1nc(NCc2cccc(-n3cccc3)c2)cc(-c2ccc3ncsc3c2)n1`, the half-inhibitory concentration (IC50) is greater than 1000 nM. For the compound `Cc1nc(NC(C)c2cccc(OC(C)(C)C(N)=O)c2)cc(-c2ccc3ncsc3c2)n1` (stereo unspecified), the IC50 was determined as 500 nM. Under `Cc1nc(N[C@@H]2CCCc3ccccc32)cc(-c2cncnc2)n1` stands greater than 1000 nM; under `CCc1coc2ccc(-c3cc(NC(C)c4cccc(OCc5cc(C)nn5C)c4)nc(C)n3)cc12` (stereo unspecified), greater than 1000 nM.

As for `Cc1nc(NC(C)c2cccc(C(=N)N)c2)cc(-c2ccc3ncsc3c2)n1` (stereo unspecified), the 50% inhibitory concentration (IC50) is 500 nM. The value for `Cc1cc(C)c2c(c1)C(Nc1cc(-c3ccc4ncsc4c3)nc(C)n1)CCC2` (stereo unspecified) was greater than 1000 nM; that for `Cc1nc(NC(C)c2ccc(F)c(OCc3ccnn3C)c2)cc(-c2ccc3ncsc3c2)n1` (stereo unspecified) was greater than 1000 nM.

Regarding `COc1ccc(F)c(-c2cc(N[C@@H]3CCCc4ccccc43)nc(C)n2)c1`, the IC50 was greater than 1000 nM.

As usually defined, the IC50 is the point on the concentration scale where inhibition reaches its midpoint.

Source of the values: ChEMBL document CHEMBL3727358, “Inhibitors of inducible form of 6-phosphofructose-2-kinase” (2014).
